Measured values: patent publication US8309721B2, “HSP90 inhibitory carbazole derivatives, compositions containing same and use thereof” (Sanofi, priority 2008, dated 2012)
Structures can show the parent of a compound that is named as a salt.

What was measured:
Hsp82 = Hsp82 (Saccharomyces cerevisiae, UniProt P02829); assay: Hsp82/ATPase test (malachite green or PK/LDH coupled method); type: biochemical; settings: 1 μM Hsp82, 250 μM ATP, 37° C.; read-out: Hsp82 ATPase IC50
Method: The biochemical activity of the compounds can in particular be evaluated by means of the “Hsp82/ATPase” test described below: The inorganic phosphate released during the hydrolysis of ATP by the ATPase activity of Hsp82 is quantified by the malachite green method. In the presence of this reagent, formation of the inorganic phosphate-molybdate-malachite green complex, which absorbs at a wavelength of 620 nm, occurs. The products to be evaluated are incubated in a reaction volume of 30 μl, in the presence of 1 μM Hsp82 and of 250 μM of substrate (ATP) in a buffer composed of 50 mM Hepes-NaOH (pH 7.5), 1 mM DTT, 5 mM MgCl2 and 50 mM KCl at 37° C. for 60 min. In parallel, an inorganic phosphate range of between 1 and 40 μM is made up in the same buffer. […] After incubation at ambient temperature for 20 min, the absorbance of the various wells is measured using a microplate reader at 620 nm. The inorganic phosphate concentration of each sample is then calculated from the standard curve. The ATPase activity of Hsp82 is expressed as concentration of inorganic phosphate produced in 60 minutes. The effect of the various products tested is expressed as percentage inhibition of the ATPase activity. The formation of ADP due to the ATPase activity of Hsp82 was used to develop another method for evaluating the enzyme activity of this enzyme by application of an enzymatic coupling system involving pyruvate kinase (PK) and lactate dehydrogenase (LDH). In this kinetic-type spectrophotometric method, PK catalyses the formation of ATP and of pyruvate from phosphoenol pyruvate (PEP) and the ADP produced by Hsp82. The pyruvate formed, which is a substrate for LDH, is subsequently converted to lactate in the presence of NADH. In this case, the decrease in the NADH concentration, measured through the decrease in absorbance at the wavelength of 340 nm, is proportional to the concentration of ADP produced by Hsp82. The products tested are incubated in a reaction volume of 100 μl of buffer composed of 100 mM Hepes-NaOH (pH 7.5), 5 mM MgCl2, 1 mM DTT, 150 mM KCl, 0.3 mM NADH, 2.5 mM PEP and 250 μM ATP. This mixture is preincubated at 37° C. for 30 minutes before the addition of 3.77 units of LDH and 3.77 units of PK. The reaction is initiated by addition of the product to be evaluated, in varying concentrations, and of Hsp82, at the concentration of 1 μM. The enzymatic activity of Hsp82 is then measured continuously, in a microplate reader, at 37° C., at the wavelength of 340 nm. The initial rate of the reaction is obtained by measuring the slope of the tangent to the origin of the curve recorded. The enzymatic activity is expressed in μM of ADP formed per minute. The effect of the various products tested is expressed as percentage inhibition of the ATPase activity according to the codification below: […]

[1] = tested on: Her2 receptor expression at the surface of SKBr3 cells; assay: phenotypic SKBr3/HER2 cell test (Her2 surface expression by flow cytometry); type: cell-based; settings: Homo sapiens, SK-BR-3, 24 h incubation, inhibition of Her2 expression
In short: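 SKBr3 cells (Her2-overexpressing adenocarcinoma) treated 24 h with compound at varying concentrations, then stained with PE-anti-Her2 antibody 30 min at 4° C; surface Her2 measured by flow cytometry. IC50 from nonlinear fit of % inhibition of Her2 expression versus concentration.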

Chain of Hsp82 (P02829 whole entry): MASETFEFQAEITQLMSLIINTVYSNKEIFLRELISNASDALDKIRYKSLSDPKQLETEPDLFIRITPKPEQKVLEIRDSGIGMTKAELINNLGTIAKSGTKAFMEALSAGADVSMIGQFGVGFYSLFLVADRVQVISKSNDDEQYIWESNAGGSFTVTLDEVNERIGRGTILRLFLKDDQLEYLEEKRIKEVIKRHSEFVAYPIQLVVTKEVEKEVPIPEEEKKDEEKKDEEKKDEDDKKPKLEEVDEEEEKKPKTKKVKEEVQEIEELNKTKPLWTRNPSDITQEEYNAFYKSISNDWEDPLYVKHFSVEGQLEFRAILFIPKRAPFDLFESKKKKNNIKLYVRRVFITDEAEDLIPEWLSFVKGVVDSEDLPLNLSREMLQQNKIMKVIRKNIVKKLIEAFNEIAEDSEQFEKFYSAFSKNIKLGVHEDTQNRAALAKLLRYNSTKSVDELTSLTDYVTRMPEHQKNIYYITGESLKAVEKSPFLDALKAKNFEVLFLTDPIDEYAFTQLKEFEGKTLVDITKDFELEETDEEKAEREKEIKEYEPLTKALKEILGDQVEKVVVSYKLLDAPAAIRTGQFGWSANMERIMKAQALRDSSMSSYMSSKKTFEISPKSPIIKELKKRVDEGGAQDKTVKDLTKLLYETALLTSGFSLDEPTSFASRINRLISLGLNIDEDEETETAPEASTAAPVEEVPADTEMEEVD

Row | melting point [°C] | IC50 (Hsp82) [µM] | IC50 [1] [µM] | SMILES
1 | 274 | < 1 | < 1 | N#Cc1ccc(-c2cccc3c2c2ccccc2n3-c2ccc(C(N)=O)c(N[C@H]3CC[C@H](O)CC3)c2)cn1 [Example 49, 4-[4-(6-cyanopyridin-3-yl)-9H-carbazol-9-yl]-2-[(4-trans-hydroxycyclohexyl)amino]benzamide]
2 | 256 | – | < 1 | N#Cc1ccc(-c2cccc3c2c2ccccc2n3-c2ccc(C(N)=O)c(NC3CCOCC3)c2)cn1 [Example 126, 4-[4-(6-cyanopyridin-3-yl)-9H-carbazol-9-yl]-2-(tetrahydro-2H-pyran-4-ylamino)benzamide]
3 | 168 | 1 to 10 | 1 to 10 | NC(=O)c1ccc(-n2c3ccccc3c3c(-c4cncc(OCc5ccccc5)c4)cccc32)cc1NCCCO [Example 68, 4-{4-[5-(benzyloxy)pyridin-3-yl]-9H-carbazol-9-yl}-2-[(3-hydroxypropyl)amino]benzamide]
4 | 263 | < 1 | < 1 | COc1cncc(-c2cccc3c2c2ccccc2n3-c2ccc(C(N)=O)c(N[C@H]3CC[C@H](O)CC3)c2)c1 [Example 27, 2-[(4-trans-hydroxycyclohexyl)amino]-4-[4-(5-methoxypyridin-3-yl)-9H-carbazol-9-yl]benzamide]
5 | 198 | < 1 | 1 to 10 | COc1cncc(-c2cccc3c2c2ccccc2n3-c2ccc(C(N)=O)c(NCCCO)c2)c1 [Example 66, 2-[(3-hydroxypropyl)amino]-4-[4-(5-methoxypyridin-3-yl)-9H-carbazol-9-yl]benzamide]
6 | 180 | 1 to 10 | 1 to 10 | NC(=O)c1ccc(-n2c3ccccc3c3c(-c4ccc(C(F)(F)F)nc4)cccc32)cc1NCCCO [Example 69, 2-[(3-hydroxypropyl)amino]-4-{4-[6-(trifluoromethyl)pyridin-3-yl]-9H-carbazol-9-yl}benzamide]
7 | > 260 | 1 to 10 | < 1 | NC(=O)c1ccc(-c2cccc3c2c2ccccc2n3-c2ccc(C(N)=O)c(N[C@H]3CC[C@H](O)CC3)c2)cn1 [Example 28, 5-(9-{4-carbamoyl-3-[(4-trans-hydroxycyclohexyl)amino]phenyl}-9H-carbazol-4-yl)pyridine-2-carboxamide]
8 | 204 | – | < 1 | N#Cc1ccc(-c2cccc3c2c2ccccc2n3-c2ccc(C(N)=O)c(NCCCO)c2)cn1 [Example 112, 4-[4-(6-cyanopyridin-3-yl)-9H-carbazol-9-yl]-2-[(3-hydroxypropyl)amino]benzamide]
9 | – | < 1 | < 1 | NC(=O)c1ccc(-n2c3ccccc3c3c(-c4cnc5ccccc5c4)cccc32)cc1N[C@H]1CC[C@H](O)CC1 [Example 2, 2-(4-trans-hydroxycyclohexylamino)-4-[(4-quinolin-3-yl)-9H-carbazol-9-yl]benzamide]
10 | – | 1 to 10 | 1 to 10 | NC(=O)c1ccc(-n2c3ccccc3c3c(-c4nc5ccc(F)cc5[nH]4)cccc32)nc1 [Example 19, 6-[4-(6-fluoro-1H-benzimidazol-2-yl)carbazol-9-yl]nicotinamide]
11 | – | 1 to 10 | 1 to 10 | Nc1n[nH]c2cc(-n3c4ccccc4c4c(-c5nc6ccc(F)cc6[nH]5)cccc43)ccc12 [Example 12, 6-[4-(6-fluoro-1H-benzimidazol-2-yl)-9H-carbazol-9-yl]-1H-indazol-3-ylamine]
12 | – | 1 to 10 | < 1 | CC(C)(C)OC(=O)CC(=O)O[C@H]1CC[C@H](Nc2cc(-n3c4ccccc4c4c(-c5nc6ccc(F)cc6[nH]5)cccc43)ccc2C(N)=O)CC1 [Example 15, tert-butyl and 4-{2-carbamoyl-5-[4-(6-fluoro-1H-benzimidazol-2-yl)-9H-carbazol-9-yl]phenylamino}cyclohexyl ester of malonic acid]
13 | – | < 1 | < 1 | CC(=O)NCCNc1cc(-n2c3ccccc3c3c(-c4nc5ccc(F)cc5[nH]4)cccc32)ccc1C(N)=O [Example 17, 2-(2-acetylaminoethylamino)-4-[4-(6-fluoro-1H-benzimidazol-2-yl)-9H-carbazol-9-yl]benzamide]
14 | – | < 1 | < 1 | CC(O)CCNc1cc(-n2c3ccccc3c3c(-c4cnc5ccccc5c4)cccc32)ccc1C(N)=O (centres unmarked) [Example 32, 2-(3-hydroxybutyl)amino-4-[4-(quinolin-3-yl)-9H-carbazol-9-yl]benzamide]
15 | – | 1 to 10 | < 1 | CC(C)(O)CCNc1cc(-n2c3ccccc3c3c(-c4nc5ccc(F)cc5[nH]4)cccc32)ccc1C(N)=O [Example 61, 4-[4-(6-fluoro-1H-benzimidazol-2-yl)-9H-carbazol-9-yl]-2-(3-hydroxy-3-methylbutylamino)benzamide]
16 | – | 1 to 10 | < 1 | NCCC(=O)O[C@H]1CC[C@H](Nc2cc(-n3c4ccccc4c4c(-c5nc6ccc(F)cc6[nH]5)cccc43)ccc2C(N)=O)CC1 [Example 24, trifluoroacetate of the 4-trans-{2-carbamoyl-5-[4-(6-fluoro-1H-benzimidazol-2-yl)-9H-carbazol-9-yl]phenylamino}cyclohexyl ester of 3-aminopropionic acid]
17 | – | < 1 | < 1 | CN(C)CCNc1cc(-n2c3ccccc3c3c(-c4nc5ccc(F)cc5[nH]4)cccc32)ccc1C(N)=O [Example 43, 2-(2-dimethylaminoethylamino)-4-[4-(6-fluoro-1H-benzimidazol-2-yl)-9H-carbazol-9-yl]benzamide]
18 | – | < 1 | < 1 | CC(O)CCNc1cc(-n2c3ccccc3c3c(-c4nc5ccc(F)cc5[nH]4)cccc32)ccc1C(N)=O (racemic) [Example 37, 4-[4-(6-fluoro-1H-benzimidazol-2-yl)-9H-carbazol-9-yl]-2-[3(R,S)hydroxybutylamino)benzamide]
19 | – | < 1 | < 1 | NC(=O)c1ccc(-n2c3ccccc3c3c(-c4cnc5ccccc5c4)cccc32)cc1NCC[N+]1([O-])CCCC1 [Example 45, 2-[2-(1-oxypyrrolidin-1-yl)ethylamino]-4-[4-(quinolin-3-yl)-9H-carbazol-9-yl]benzamide]
20 | – | 1 to 10 | 1 to 10 | NC(=O)c1ccc(-n2c3ccccc3c3c(-c4nc5ccc(F)cc5[nH]4)cccc32)cc1NCc1c[nH]cn1 [Example 57, 4-[4-(6-fluoro-1H-benzimidazol-2-yl)-9H-carbazol-9-yl]-2-[(1H-imidazoly-4-yl)methylamino]benzamide]
21 | – | 1 to 10 | < 1 | NC(=O)c1ccc(-n2c3ccccc3c3c(-c4nc5ccc(F)cc5[nH]4)cccc32)cc1F [Example 14, 2-fluoro-4-[4-(6-fluoro-1H-benzimidazol-2-yl)-9H-carbazol-9-yl]benzamide]
22 | – | 1 to 10 | 1 to 10 | NC(=O)c1ccc(-n2c3ccccc3c3c(-c4cnc5ccccc5c4)cccc32)cc1 [Example 30, 4-[4-(quinolin-3-yl)-9H-carbazol-9-yl]benzamide]
